Values quoted from earlier work, collected in patent US9238083B2, “Molecular probe for imaging of pancreatic islets and use of the same” (Kyoto University, priority 2009, dated 2016).

How the values were obtained:
pancreatic islet cells = conditions: cited from earlier work
[1] = tested on: GLP-1R-positive tumor cells; conditions: cited from earlier work

## Lys^40(Ahx-DTPA-^111In)Exendin-4(9-39)
Pancreatic islet cells
  uptake in pancreatic islets: about 0.4%
Pancreatic islet cells; conclusion from the uptake results
  affinity with respect to GLP-1R: low affinity
[1]
  uptake in the GLP-1R-positive tumor cells: about 7.5%
